Target: Tyk2 (Homo sapiens (Human), UniProt P29597)
Test: pSTAT4 Cell Assay (MSD, NK92 cells)
Format: cell-based
Conditions: MSD
Description: The inhibitory potency of compounds of the disclosure against the Tyk2 kinase activity on STAT4 was evaluated using an MSD-platform plate-based assay format. NK92 cells natively expressing STAT4 and Tyk2 were serum-starved to reduce background phosphorylation levels, then cells were treated compounds for 1 hr with a 10-point four-fold dilution series starting at 10 μM. Cells were then stimulated with 30 ng/mL […] for 15 minutes. […] The data were normalized and the percent activity versus log concentration of compound were fitted with a 4-parameter logistic model to generate to generate IC50 curves.

Chain of Tyk2 (P29597 whole entry): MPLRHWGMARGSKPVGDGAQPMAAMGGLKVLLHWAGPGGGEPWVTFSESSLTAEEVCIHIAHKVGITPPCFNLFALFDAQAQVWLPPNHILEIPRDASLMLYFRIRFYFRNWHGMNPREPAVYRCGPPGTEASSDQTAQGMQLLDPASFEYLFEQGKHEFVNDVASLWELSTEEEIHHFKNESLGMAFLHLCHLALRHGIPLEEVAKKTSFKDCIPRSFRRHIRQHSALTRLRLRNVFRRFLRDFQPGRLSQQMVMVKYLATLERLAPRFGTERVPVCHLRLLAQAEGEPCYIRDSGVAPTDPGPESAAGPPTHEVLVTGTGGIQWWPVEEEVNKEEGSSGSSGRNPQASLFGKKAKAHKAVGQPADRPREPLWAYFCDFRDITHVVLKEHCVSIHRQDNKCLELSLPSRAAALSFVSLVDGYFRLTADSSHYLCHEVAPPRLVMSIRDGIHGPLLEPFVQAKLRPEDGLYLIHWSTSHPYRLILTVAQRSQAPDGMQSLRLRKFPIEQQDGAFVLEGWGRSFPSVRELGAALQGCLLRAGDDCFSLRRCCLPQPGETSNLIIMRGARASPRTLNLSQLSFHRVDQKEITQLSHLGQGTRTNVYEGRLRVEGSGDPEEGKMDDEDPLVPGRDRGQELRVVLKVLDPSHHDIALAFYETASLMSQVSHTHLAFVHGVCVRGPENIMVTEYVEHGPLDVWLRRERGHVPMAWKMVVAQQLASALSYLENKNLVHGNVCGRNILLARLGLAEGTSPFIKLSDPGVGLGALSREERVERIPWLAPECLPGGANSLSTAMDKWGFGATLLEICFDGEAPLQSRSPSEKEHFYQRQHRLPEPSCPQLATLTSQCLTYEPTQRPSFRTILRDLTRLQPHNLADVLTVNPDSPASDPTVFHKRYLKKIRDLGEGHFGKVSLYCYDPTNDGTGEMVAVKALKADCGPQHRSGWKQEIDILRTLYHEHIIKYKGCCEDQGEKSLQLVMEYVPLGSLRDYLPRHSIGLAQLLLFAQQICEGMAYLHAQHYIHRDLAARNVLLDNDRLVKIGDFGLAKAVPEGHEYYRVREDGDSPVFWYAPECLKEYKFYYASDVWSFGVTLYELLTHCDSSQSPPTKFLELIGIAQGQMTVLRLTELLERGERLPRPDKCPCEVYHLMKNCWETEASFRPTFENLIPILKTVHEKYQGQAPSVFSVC

| Structure (SMILES) | IC50 [nM] |
| --- | --- |
| CC(=O)Nc1cc(Nc2cc(C)nc(C(C)(F)F)n2)c(-c2ccc([C@H]3COCCN3C)cn2)cn1 (single isomer, unassigned) [Example 645, (S)-N-(4′-((2-(1,1-difluoroethyl)-6-methylpyrimidin-4-yl)amino)-5-(4-methylmorpholin-3-yl)-[2,3′-bipyridin]-6′-yl)acetamide or (R)-N-(4′-((2-(1,1-difluoroethyl)-6-methylpyrimidin-4-yl)amino)-5-(4-methylmorpholin-3-yl)-[2,3′-bipyridin]-6′-yl)acetamide] | ≤ 10 |
| CC(=O)Nc1cc(Nc2cc(C)nc(C(C)(F)F)n2)c(-c2ccc([C@@H]3COCCN3C)cn2)cn1 (single isomer, unassigned) [Example 646, (R)-N-(4′-((2-(1,1-difluoroethyl)-6-methylpyrimidin-4-yl)amino)-5-(4-methylmorpholin-3-yl)-[2,3′-bipyridin]-6′-yl)acetamide or (S)-N-(4′-((2-(1,1-difluoroethyl)-6-methylpyrimidin-4-yl)amino)-5-(4-methylmorpholin-3-yl)-[2,3′-bipyridin]-6′-yl)acetamide] | ≤ 10 |
| CC(=O)Nc1cc(Nc2ccnc(C(C)(F)F)n2)c(OC(F)F)cn1 [Example 6, N-(4-((2-(1,1-difluoroethyl)pyrimidin-4-yl)amino)-5-(difluoromethoxy)pyridin-2-yl)acetamide] | ≥ 1000 |
| CC(=O)Nc1cc(Nc2ccnc(C(C)(F)F)n2)c(OC2CCC2)cn1 [Example 7, N-(5-cyclobutoxy-4-((2-(1,1-difluoroethyl)pyrimidin-4-yl)amino)pyridin-2-yl)acetamide] | 100 to 1000 |
| CC(=O)Nc1cc(Nc2cc(C)nc(C(C)(F)F)n2)c(OCC2(C)CC2)cn1 [Example 58, N-(4-((2-(1,1-difluoroethyl)-6-methylpyrimidin-4-yl)amino)-5-((1-methylcyclopropyl)methoxy)pyridin-2-yl)acetamide] | 10 to 100 |
| COCCOc1cnc(NC(C)=O)cc1Nc1cccc(C(F)CF)n1 (centres unmarked) [Example 73, N-(4-((6-(1,2-difluoroethyl)pyridin-2-yl)amino)-5-(2-methoxyethoxy)pyridin-2-yl)acetamide] | 10 to 100 |
| CC(=O)Nc1cc(Nc2cc(C)nc(C(C)(F)F)n2)c(OCC23CC(C2)C3)cn1 [Example 100, N-(5-(bicyclo[1.1.1]pentan-1-ylmethoxy)-4-((2-(1,1-difluoroethyl)-6-methylpyrimidin-4-yl)amino)pyridin-2-yl)acetamide] | ≤ 10 |
| CNC(=O)COc1cnc(NC(C)=O)cc1Nc1cc(C)nc(C(C)(F)F)n1 [Example 102, 2-((6-acetamido-4-((2-(1,1-difluoroethyl)-6-methylpyrimidin-4-yl)amino)pyridin-3-yl)oxy)-N-methylacetamide] | 10 to 100 |
| CC(=O)Nc1cc(Nc2cc(C)nc(C(C)(F)F)n2)c(OCC(=O)N(C)C)cn1 [Example 103, 2-((6-acetamido-4-((2-(1,1-difluoroethyl)-6-methylpyrimidin-4-yl)amino)pyridin-3-yl)oxy)-N,N-dimethylacetamide] | 100 to 1000 |
| CC(=O)Nc1cc(Nc2cc(C)nc(C(C)(F)F)n2)c(OCCC(F)F)cn1 [Example 104, N-(4-((2-(1,1-difluoroethyl)-6-methylpyrimidin-4-yl)amino)-5-(3,3-difluoropropoxy)pyridin-2-yl)acetamide] | 10 to 100 |
| CCCCOc1cnc(NC(C)=O)cc1Nc1cc(C)nc(C(C)(F)F)n1 [Example 105, N-(5-butoxy-4-((2-(1,1-difluoroethyl)-6-methylpyrimidin-4-yl)amino)pyridin-2-yl)acetamide] | ≤ 10 |
| CC(=O)Nc1cc(Nc2cc(C)nc(C(C)(F)F)n2)c(OCCN2CCN(C)CC2)cn1 [Example 106, N-(4-((2-(1,1-difluoroethyl)-6-methylpyrimidin-4-yl)amino)-5-(2-(4-methylpiperazin-1-yl)ethoxy)pyridin-2-yl)acetamide] | 10 to 100 |
| COCCCOc1cnc(NC(C)=O)cc1Nc1cc(C)nc(C(C)(F)F)n1 [Example 107, N-(4-((2-(1,1-difluoroethyl)-6-methylpyrimidin-4-yl)amino)-5-(3-methoxypropoxy)pyridin-2-yl)acetamide] | 10 to 100 |
| CC(=O)Nc1cc(Nc2cc(C)nc(C(C)(F)F)n2)c(OCc2nccs2)cn1 [Example 108, N-(4-((2-(1,1-difluoroethyl)-6-methylpyrimidin-4-yl)amino)-5-(thiazol-2-ylmethoxy)pyridin-2-yl)acetamide] | 10 to 100 |
| CCC1(COc2cnc(NC(C)=O)cc2Nc2cc(C)nc(C(C)(F)F)n2)COC1 [Example 109, N-(4-((2-(1,1-difluoroethyl)-6-methylpyrimidin-4-yl)amino)-5-((3-ethyloxetan-3-yl)methoxy)pyridin-2-yl)acetamide] | 10 to 100 |
| CC(=O)Nc1cc(Nc2cc(C)nc(C(C)(F)F)n2)c(OC[C@@H]2COC(C)(C)O2)cn1 [Example 110, (R)-N-(4-((2-(1,1-difluoroethyl)-6-methylpyrimidin-4-yl)amino)-5-((2,2-dimethyl-1,3-dioxolan-4-yl)methoxy)pyridin-2-yl)acetamide] | 10 to 100 |

| Structure (SMILES) | IC50 [nM] |
| --- | --- |
| CC(=O)Nc1cc(Nc2cc(C)nc(C(C)(F)F)n2)c(OCc2csnc2C)cn1 [Example 111, N-(4-((2-(1,1-difluoroethyl)-6-methylpyrimidin-4-yl)amino)-5-((3-methylisothiazol-4-yl)methoxy)pyridin-2-yl)acetamide] | 100 to 1000 |
| CC(=O)Nc1cc(Nc2cc(C)nc(C(C)(F)F)n2)c(OCc2nc(C)cs2)cn1 [Example 112, N-(4-((2-(1,1-difluoroethyl)-6-methylpyrimidin-4-yl)amino)-5-((4-methylthiazol-2-yl)methoxy)pyridin-2-yl)acetamide] | 10 to 100 |
| CC(=O)Nc1cc(Nc2cc(C)nc(C(C)(F)F)n2)c(OCCOC(C)(C)C)cn1 [Example 113, N-(5-(2-(tert-butoxy)ethoxy)-4-((2-(1,1-difluoroethyl)-6-methylpyrimidin-4-yl)amino)pyridin-2-yl)acetamide] | ≤ 10 |
| COc1cc(COc2cnc(NC(C)=O)cc2Nc2cc(C)nc(C(C)(F)F)n2)ccn1 [Example 114, N-(4-((2-(1,1-difluoroethyl)-6-methylpyrimidin-4-yl)amino)-5-((2-methoxypyridin-4-yl)methoxy)pyridin-2-yl)acetamide] | 10 to 100 |
| CC(=O)Nc1cc(Nc2cc(C)nc(C(C)(F)F)n2)c(OCc2cc(C)sn2)cn1 [Example 115, N-(4-((2-(1,1-difluoroethyl)-6-methylpyrimidin-4-yl)amino)-5-((5-methylisothiazol-3-yl)methoxy)pyridin-2-yl)acetamide] | ≤ 10 |
| CC(=O)Nc1cc(Nc2cc(C)nc(C(C)(F)F)n2)c(OCc2ccc(C)nc2)cn1 [Example 116, N-(4-((2-(1,1-difluoroethyl)-6-methylpyrimidin-4-yl)amino)-5-((6-methylpyridin-3-yl)methoxy)pyridin-2-yl)acetamide] | 10 to 100 |
| CC(=O)Nc1cc(Nc2cc(C)nc(C(C)(F)F)n2)c(OCc2csc(C)n2)cn1 [Example 117, N-(4-((2-(1,1-difluoroethyl)-6-methylpyrimidin-4-yl)amino)-5-((2-methylthiazol-4-yl)methoxy)pyridin-2-yl)acetamide] | ≤ 10 |
| CC(=O)Nc1cc(Nc2cc(C)nc(C(C)(F)F)n2)c(OCc2nnc(C)s2)cn1 [Example 118, N-(4-((2-(1,1-difluoroethyl)-6-methylpyrimidin-4-yl)amino)-5-((5-methyl-1,3,4-thiadiazol-2-yl)methoxy)pyridin-2-yl)acetamide] | 10 to 100 |
| CC(=O)Nc1cc(Nc2cc(C)nc(C(C)(F)F)n2)c(OCc2ccnc(F)c2)cn1 [Example 120, N-(4-((2-(1,1-difluoroethyl)-6-methylpyrimidin-4-yl)amino)-5-((2-fluoropyridin-4-yl)methoxy)pyridin-2-yl)acetamide] | 10 to 100 |
| CC(=O)Nc1cc(Nc2cc(C)nc(C(C)(F)F)n2)c(OCc2cc(C)no2)cn1 [Example 121, N-(4-((2-(1,1-difluoroethyl)-6-methylpyrimidin-4-yl)amino)-5-((3-methylisoxazol-5-yl)methoxy)pyridin-2-yl)acetamide] | 10 to 100 |
| CC(=O)Nc1cc(Nc2cc(C)nc(C(C)(F)F)n2)c(OCc2cnco2)cn1 [Example 122, N-(4-((2-(1,1-difluoroethyl)-6-methylpyrimidin-4-yl)amino)-5-(oxazol-5-ylmethoxy)pyridin-2-yl)acetamide] | ≤ 10 |
| CC(=O)Nc1cc(Nc2cc(C)nc(C(C)(F)F)n2)c(OCc2cc(C)cc(C)n2)cn1 [Example 123, N-(4-((2-(1,1-difluoroethyl)-6-methylpyrimidin-4-yl)amino)-5-((4,6-dimethylpyridin-2-yl)methoxy)pyridin-2-yl)acetamide] | 10 to 100 |
| CC(=O)Nc1cc(Nc2cc(C)nc(C(C)(F)F)n2)c(OC[C@H]2COC(C)(C)O2)cn1 [Example 124, (S)-N-(4-((2-(1,1-difluoroethyl)-6-methylpyrimidin-4-yl)amino)-5-((2,2-dimethyl-1,3-dioxolan-4-yl)methoxy)pyridin-2-yl)acetamide] | ≤ 10 |
| CC(=O)Nc1cc(Nc2cc(C)nc(C(C)(F)F)n2)c(OCc2cnccn2)cn1 [Example 126, N-(4-((2-(1,1-difluoroethyl)-6-methylpyrimidin-4-yl)amino)-5-(pyrazin-2-ylmethoxy)pyridin-2-yl)acetamide] | 10 to 100 |
| COc1ccc(COc2cnc(NC(C)=O)cc2Nc2cc(C)nc(C(C)(F)F)n2)nc1 [Example 127, N-(4-((2-(1,1-difluoroethyl)-6-methylpyrimidin-4-yl)amino)-5-((5-methoxypyridin-2-yl)methoxy)pyridin-2-yl)acetamide] | ≤ 10 |
| COc1ccnc(COc2cnc(NC(C)=O)cc2Nc2cc(C)nc(C(C)(F)F)n2)c1 [Example 128, N-(4-((2-(1,1-difluoroethyl)-6-methylpyrimidin-4-yl)amino)-5-((4-methoxypyridin-2-yl)methoxy)pyridin-2-yl)acetamide] | 10 to 100 |
